From PubChem BioAssay AID179 (DTP/NCI, 2004)
Values joined by “and” are separate entries in the source; they are usually repeats but may differ in a detail not shown here. Equal entries are not always repeated. Active and inactive are the calls of the source.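 How the source made its calls: active means compounds giving half or more protection of infected cells from virus-caused growth loss, again on retest; inactive means the rest.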

Tested on: CEM cells HIV-1 protection, formazan growth assay
Assay: NCI AIDS Antiviral Assay
Conditions: for IC50: measured here: growth of uninfected CEM cells
Summary of the method: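 Soluble formazan readout of cell growth; CEM cells ± HIV-1; 5 drug concs. ≥50% protection → retest; ≥50% again = moderately active; reproducible 100% = confirmed active.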

SMILES	EC50 [µM]	IC50	outcome
CCOC(=O)C(NC(=O)c1ccccc1)(N1CCOCC1)C(F)(F)F (centres undefined)	> 200	> 200 µM	
N#CCCN(CCC#N)c1ccc(C(=O)NN)cc1	> 363	288 µM	
Cc1ccc(S(=O)(=O)N2C[C@](O)(c3ccccc3)[C@H]2C)cc1	> 200	195 µM	
CCCCCCOC(=O)Nc1nnc(SSC2=NN=CC2NC(=O)OCCCCCC)s1 (centres undefined)	> 200	19.5 µM	
N#C[C@H](OC1OC(COC(=O)/C=C/c2ccc(O)c(O)c2)C(O)C(O)C1O)c1ccccc1 (some centres undefined)			inactive
COc1ccc2c(c1O)-c1c(OC)c(OC)cc3c1C(C2)N(C)CC3 (centres undefined)	> 200	> 200 µM	
CCN(C)c1nc(N(C)CC)c2nc(N(C)CC)nc(N(C)CC)c2n1	> 501	120 µM	
C=CCn1c(=O)c2ccccc2[n+]2c(C)c(C(=O)OCC)sc12	132	> 200 µM	
CN1CCOC1c1ccccc1O (centres undefined)	> 200	> 200 µM	
Cc1ccc(NCCNCCO)c2c(=O)c3ccccc3sc12			inactive
O=c1cc(-c2ccccc2)ss1	> 200	105 µM	
O=C(NS(=O)(=O)Nc1ccccc1)OC(c1ccccc1)c1ccccc1	> 200	70.8 µM	
COc1cc(N/N=C/C#N)cc(OC)c1OC	> 45.7	2.24 µM	
NCCCCC(=O)NC(CCCCNC(=O)OCc1ccccc1)C(=O)NCCCCC(=O)NC(CCCCNC(=O)OCc1ccccc1)C(=O)NCCCCC(=O)NC(CCCCNC(=O)OCc1ccccc1)C(=O)NCCCCC(=O)NC(CCCCNC(=O)OCc1ccccc1)C(=O)NCCCCC(=O)NC(CCCCNC(=O)OCc1ccccc1)C(=O)O (centres undefined)	> 14.1	13.8 µM	
Nc1nc(N)c(N=O)c(Nc2cccc(Br)c2)n1	> 200	8.51 µM	
O=C(CCc1nnc2s/c(=C\c3ccccc3[N+](=O)[O-])c(=O)n12)Nc1cc(Cl)c(Cl)cc1Cl	> 2	> 2 µM	
O=C(CC(c1ccccc1)c1ccccc1)NCCCCN1CCCCCCC1	> 200	12.9 µM	
COc1ccc(C2OC(=O)c3ncccc32)cc1 (centres undefined)	> 200	> 200 µM	
Cc1ccc(OCC2OC(n3cnc4c(Cl)ncnc43)CC2Oc2ccc(C)cc2)cc1 (centres undefined)	> 200	6.92 µM and 12.3 µM	
COC(=O)[C@@H]1C[C@@]23CCCN4CC[C@@]5(c6cccc(OC)c6N(C=O)[C@]15CC2)[C@@H]43	> 66.1	> 66.1 µM	
COc1nc2c(c(=O)n1C)N[C@@H]1[C@@H](O)[C@H](O)CO[C@@H]1N2	> 200	> 200 µM	
Cc1oc(N)c(S(=O)(=O)c2ccc(Cl)cc2)c1C	> 200	34.7 µM	
CC1=Nc2c(ccc3c2C(=O)c2ccccc2C3=O)NC(c2ccncc2)C1 (centres undefined)	> 7.41	> 7.41 µM	

SMILES	EC50 [µM]	IC50	outcome
O=C1c2cccc([N+](=O)[O-])c2C(=O)N1CC[P+](c1ccccc1)(c1ccccc1)c1ccccc1	> 200	> 200 µM	
O=C(CC(=O)N(C(=O)c1ccccc1)c1ccc(Cl)cc1)N/N=C\c1ccccc1O	> 200	> 200 µM	
Cc1ccc(C2SCC(=O)N2c2ccc(-n3c(-c4ccccc4)nc4ccccc4c3=O)cc2)cc1 (centres undefined)	> 200	10.7 µM	
O=c1ccn2n1Cc1ccccc1C2	> 200	> 200 µM	
O=[N+]([O-])c1ccc(Cl)cc1N/N=C/c1ccnc2ccccc12			inactive
O=c1[nH]c(-c2ccc([N+](=O)[O-])cc2)nc2ccc(Cl)cc12			inactive
CN1c2ccccc2N(C(=O)c2ccc(Cl)cc2)C(CC(=O)O)c2cccn21 (centres undefined)	> 631	117 µM	
CC1CC(=O)Nc2ccccc2N1C(=O)CN1CCC(CCCCN(C)C)CC1 (centres undefined)	> 251	> 251 µM	
CN1C(=O)CC(=O)N1/C(=C/c1ccccc1)c1ccccc1	> 200	155 µM	
O=C(CN1CCCCC1)c1ccc2[nH]c(=O)oc2c1	> 200	129 µM	
O=c1c(Cl)c(Cl)cnn1-c1ccc([N+](=O)[O-])cc1[N+](=O)[O-]	> 20.4	> 20.4 µM	
CCN(CC)C(=O)CCNC(C)Cc1c[nH]c2ccccc12 (centres undefined)	> 200	> 200 µM	
CCOC(=O)[C@@H]1ON2OC(OC3CCCC3(c3ccccc3)c3ccccc3)C(OC(C)=O)[C@H]3OC(=O)[C@@H]1C32 (some centres undefined)	> 200	> 200 µM	
COC1CCC(=O)N1CC/C=C(/Br)[Si](C)(C)C (centres undefined)			inactive
CCN(CC)CCOc1ccc(/C(C#N)=C/c2ccc(OCCO)cc2)cc1	> 200	20.9 µM	
CN(C)CCNC(=O)c1cccc(NC(=O)c2ccccc2)c1[N+](=O)[O-]	> 200	> 200 µM	
O=C1C(c2ccccc2)=[N+]([O-])c2ccc(Cl)cc21			inactive
CC(=O)NC1C(O)OC(CO)C(O)C1OC(C)C(=O)N[C@@H](CC(N)=O)C(=O)N[C@H](CCC(=O)O)C(N)=O (some centres undefined)	> 468	219 µM	
CCC1COS(=O)(=O)CS(=O)(=O)O1 (centres undefined)	> 1070	1020 µM	
CC12c3ccccc3C(C)(c3c1ccc1ccccc31)C1C(=O)OC(=O)C12 (centres undefined)	> 38.9	26.9 µM	
C=C(c1ccccc1)N1N=NC2CCOC21 (centres undefined)	> 200	> 200 µM	
CN(C)CC(=O)N1CCc2c([nH]c3ccccc23)C1c1cccnc1 (centres undefined)	> 107	> 107 µM	
ON=C1CCCCC(=NO)CCCC1	> 200	> 200 µM	

SMILES	EC50 [µM]	IC50	outcome
COc1cccc(N2C(=O)C3c4[nH]c5ccc(C)cc5c4C4CCC(C)CC4C3C2=O)c1 (centres undefined)	> 100	> 100 µM	
S=C1N=C(Cl)/C(=C\c2ccco2)N1	> 200	> 200 µM	
Cc1nc(Nc2ccccc2Cl)sc1C(=O)CC(=O)C(=O)Nc1c(Cl)cccc1Cl	> 200	57.5 µM	
COc1ccc(C(C#N)NNC(=O)Cc2ccccc2)cc1OC (centres undefined)	> 398	331 µM	
C=C(C)COC(=O)COCC(=O)OCC(=C)C	> 200	> 200 µM	
CN(C)c1ncnc2c1ncn2C1OC(CO)C2NP(=O)(N(CCCl)CCCl)OC21 (centres undefined)	> 200	> 200 µM	
O=C1c2c(c3c4ccccc4n4c3c3c2c2ccccc2n3C/C=C\C4)C(=O)N1Cc1ccccc1			inactive
Cc1ccc2c(c1S)C(=O)c1ccccc1C2=O	> 117	29.5 µM	
O=C1c2ccccc2C(=O)C2(C(c3ccccc3)c3ccccc3)N=NCC12 (centres undefined)	> 200	105 µM	
Cc1cc(C)c(C(=O)c2c(C)ccc(C)c2C(=O)O)c(C)c1	> 200	> 200 µM	
O=S(=O)(NCCSSCCNS(=O)(=O)c1ccc(Cl)cc1)c1ccc(Cl)cc1	> 200	17.8 µM	
Nc1ccc2nc3ccc(O)cc3nc2c1	> 200	17 µM	
Oc1[nH]c2ccccc2c1N=NC1=NCCCCN1	> 200	> 200 µM	
O=C1N=C2N=C(c3ccc(Cl)cc3)N(c3ccc(Cl)cc3)N2Sc2ccccc21	> 11.2	> 11.2 µM	
O=C1/C(=C/c2ccc(O)c(O)c2)CCc2ccccc21	> 162	2.4 µM	
COC(=O)C12CCC(CC1=O)C2(C)C (centres undefined)	> 251	> 251 µM	
O=C1CCC2(c3ccc(Cl)cc3)Nc3ccccc3N12 (centres undefined)			inactive
CC(=O)Nc1ccc(C(=O)NN2C(=O)C(Cl)C2c2ccc(O)cc2)cc1 (centres undefined)	> 200	> 200 µM	
CCOC(=O)C1=NN(c2ccccc2)C(=O)/C1=C\N1C(=S)NC(=O)/C1=C\c1cccc([N+](=O)[O-])c1	> 200	89.1 µM	
COC/N=C(/N)NC#N	> 692	> 692 µM	
COc1cc(N=Nc2cc(S(=O)(=O)O)c3cccnc3c2O)ccc1-c1ccc(N=Nc2cc(S(=O)(=O)O)c3cccnc3c2O)cc1OC	100	182 µM	
COc1ccc(C2CC(=O)CC(c3ccc(OC)cc3)C23C(=O)CCCC3=O)cc1 (centres undefined)	> 200	> 200 µM	
CC(=O)Oc1ccccc1-c1cc2ccccc2oc1=O	> 200	> 100 µM	

SMILES	EC50 [µM]	IC50	outcome
COc1cc2c(c3c1C1Oc4cc(OCc5ccccc5)c(O)cc4C1C(C)(C)O3)CCC(C)(C)O2 (centres undefined)	> 200	36.3 µM	
COc1ccc(-c2nc3ccccc3c(=S)n2OC(C)=O)cc1	> 200	1.7 µM	
Clc1ccc(-c2cc[s+]s2)cc1	> 200	33.1 µM	
CS(=O)(=O)NC(=O)C[P+](c1ccccc1)(c1ccccc1)c1ccccc1	> 200	> 200 µM	
Cc1cc2[nH]c3c(C#N)c(O)c(C)c(=O)n3c2cc1C	> 166	> 166 µM	
CN(C)Cc1cc(N=Nc2ccccc2Cl)ccc1O	> 20	10.2 µM	
CCC1N2CCCCC2[C@@H]2c3[nH]c4ccccc4c3CCN12 (some centres undefined)	> 447	389 µM	
NC(N)=N/N=C(\c1nc2ccc([N+](=O)[O-])cc2[nH]c1=O)C(O)c1ccc([N+](=O)[O-])cc1 (centres undefined)	> 158	> 158 µM	
Cc1cc(=O)oc2c(C3=NN(C=O)C(c4ccccc4)C3)c(O)ccc12 (centres undefined)			inactive
Cc1cc2c(=O)c3ccccc3oc2c(C(=O)O)c1C	> 200	> 200 µM	
C/C(=N\NC(=O)/C(C#N)=C\c1ccc(N(CCC#N)CCC#N)cc1)c1ccccc1			inactive
Cc1ccc(S(=O)(=O)NNCNC(=O)c2ccccc2)cc1			inactive
COC1=CC(=O)c2cc(C)cc(-c3cc4ccc(=O)oc4cc3OC)c2C1=O			inactive
COc1cc2c(cc1C1=NC(C)(C)CO1)OCO2	> 1000	> 1000 µM	
CCN(CC)C(=S)SC1C(=O)NC(=O)NC1=O	> 200	> 200 µM	
C=C[C@@]1(O)CCCC2=C(C(=O)OCC)CC[C@]21C			inactive
Cn1c(=O)nc2n(-c3cccc(Br)c3)c3ccccc3nc-2c1=O			inactive
COc1nc2nccnc2c(=O)n1C	> 200	> 200 µM	
O=C1Nc2cccnc2NC2=C1CSC2	> 200	> 200 µM	
CC(C)=CCN1Cc2cccc3[nH]c(=S)n(c23)C[C@@H]1C	0.0302	1.74 µM	
